Here are results for one compound from patent publication US9533019B1, “Calotropis procera extracts as anti-ulcerative colitis agents” (KING SAUD UNIVERSITY, priority 2016, dated 2017).

Molecules are shown by their SMILES. Marks after values point to notes of the source that are not given here.

The subject of this test is acetic acid-induced colitis in male Wistar rats. Kind of test: Acetic acid-induced ulcerative colitis. The class given is in vivo. Here is the method:
Male Wistar rats were divided into 9 experimental groups, each of 6 animals. Rats of groups 1 and 2 received the vehicle (5 mL/kg) and served as normal control and control colitis groups, and Group 3 was administered dexamethasone (0.1 mg/kg) and served as Reference Drug group. […] All medications were administered orally, once daily for 5 consecutive days after colitis induction. The first doses were administrated in all groups one hour after colitis induction. The colonic lesions were assessed by weighing the colon specimens and the wet weight/length ratio was calculated for all the rats. The specimens were examined under a dissecting microscope and the lesion scores were quantified by scoring system (0-5). Ulcer area was measured using a plane glass square. Each cell on the glass square was 1 mm^2 in area, and the number of cells was counted and the ulcer area was determined for each colon.
The Ulcer index (UI) was measured by summing the lesion score and the ulcer area for each colon specimen. The curative ratio was determined according to formula (1) below: […]
The inflammatory changes of the intestinal tract were associated with a significant increase of wet weight/length of the colon specimens as an indicator of inflammation. […] The colitis was induced by slowly infusion of 2 mL (4%, v/v) acetic acid in saline into the colon through the catheter.

The mark [1] stands for this setting: 50 mg/kg orally once daily for 5 days after colitis induction, n=6.

On to `C[C@]12C=CC(=O)C=C1CC[C@@H]1[C@@H]2[C@@H](O)C[C@@]2(C)[C@H]1CC[C@]2(O)C(=O)CO` [Prednisolone], for which the “percent protection of control colitis” value (50 mg/kg orally for 5 days) is 54.9%. Further, under setting [1], the “Lesion score (0-5)” value was determined as 2.22 ± 0.12, the Ulcer area is on record as 2.53 ± 0.15* cm^2 and the Ulcer index came to 4.65 ± 0.27. Also, the “Wet W/L” value (colon wet weight/length, 50 mg/kg orally once daily for 5 days after colitis induction, n=6) amounted to 0.46 ± 0.02 g/cm.
